Experimental findings from the supplement of paper PMC11061612 are described below.

Holding throughout (test): combination Emax (second highest fraction inhibited in the dose matrix, 72 h); higher = more inhibition; extreme values may be limits of the assay
The test system of experiment [1] is A2780 (Ovarian Carcinoma). The method in brief: (§1)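 Cell lines in DMEM/F12 or RPMI with 10% FBS were plated in 1536-well plates, held 24 hours at 37°C, 5% CO2, then given two-drug dose matrices for 72 hours (DMSO typically 0.2%). Viability was read by CellTiter-Glo 2.0 luminescence and scaled as inhibition from 0 (vehicle wells) to 1 (blank wells). Combination Emax is the second-highest inhibition in the matrix; Bliss excess is observed combination effect minus expected EA + EB − EA·EB, EA and EB being single-agent effects.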

In the next experiment the test system is IM-9 (Non-Cancerous). The gist of the method:
as §1

Experiment [2] relates to JHH-2 (Hepatocellular Carcinoma). The method in brief: as §1
The test system of experiment [3] is KYSE-220 (Esophageal Squamous Cell Carcinoma). The method in brief:
as §1

Experiment [4] relates to MHH-ES-1 (Ewing's Sarcoma). The gist of the method:
as §1

Experiment [5] deals with NCI-H1651 (Lung Adenocarcinoma). The gist of the method: as §1
Experiment [6] relates to NCI-H441 (Lung Adenocarcinoma). The method in brief:
as §1

For experiment [7], the system named is DMS-53 (Small Cell Lung Carcinoma). The method in brief: as §1
For experiment [8], the system named is DU-4475 (Breast Carcinoma). The method in brief: as §1
Experiment [9] relates to LS-411N (Colorectal Carcinoma). The gist of the method:
as §1

With `C[C@@H](Oc1cc(-c2cnn(C3CCNCC3)c2)cnc1N)c1c(Cl)ccc(F)c1Cl` [Crizotinib] + CC1=C(C(=CC=C1)Cl)NC(=O)C2=CN=C(S2)NC3=CC(=NC(=N3)C)N4CCN(CC4)CCO [Dasatinib] (first compound max 10 µM, 7x7, partner max 2 µM), the “combination Emax” value in experiment [1] turned out to be 0.882; in the experiment on IM-9 (Non-Cancerous), 0.974; in experiment [2], 0.883; in experiment [3], 0.968; in experiment [4] it was 0.77; in [5], 0.29. Also, the “combination Emax” value in experiment [6] amounted to 0.63.
For `C[C@@H](Oc1cc(-c2cnn(C3CCNCC3)c2)cnc1N)c1c(Cl)ccc(F)c1Cl` [Crizotinib] + Cn1cnc2c(F)c(Nc3ccc(Br)cc3Cl)c(C(=O)NOCCO)cc21 [Selumetinib] (first compound max 10 µM, 7x7, partner max 10 µM), the “combination Emax” value stood at 0.922 in experiment [1]; 1 in the experiment on IM-9 (Non-Cancerous); 0.598 in [2]; 0.973 in [3]; 0.889 in experiment [4]; 0.0815 in [5]. In [6], the “combination Emax” value is 0.415.
With `CS(=O)(=O)CCNCc1ccc(-c2ccc3ncnc(Nc4ccc(OCc5cccc(F)c5)c(Cl)c4)c3c2)o1` [Lapatinib] + Cn1cnc2c(F)c(Nc3ccc(Br)cc3Cl)c(C(=O)NOCCO)cc21 [Selumetinib] (first compound max 10 µM, 7x7, partner max 10 µM), the “combination Emax” value in experiment [1] was determined as 0.684; in the experiment with IM-9 (Non-Cancerous) it was 0.994; in [2], 0.565; in experiment [3] it was 0.954; in [4], 0.401; in experiment [5] it was 0.151. The “combination Emax” value in experiment [6] amounted to 0.32.
Turning to `CS(=O)(=O)CCNCc1ccc(-c2ccc3ncnc(Nc4ccc(OCc5cccc(F)c5)c(Cl)c4)c3c2)o1` [Lapatinib] + NC1(c2ccc(-c3nc4ccn5c(=O)[nH]nc5c4cc3-c3ccccc3)cc2)CCC1 [MK-2206] (first compound max 10 µM, 7x7, partner max 10 µM), the “combination Emax” value in experiment [1] turned out to be 0.909; in experiment [7], 0.544; in [8], 0.983; in the experiment with IM-9 (Non-Cancerous) it was 0.964; in experiment [2], 0.9; in [3], 0.981. Also, the “combination Emax” value in experiment [9] was found to be 0.295; in experiment [4] it was 0.905; in experiment [5], 0.442; in experiment [6], 0.473.
Consider `O=C(c1cc(Cc2n[nH]c(=O)c3ccccc23)ccc1F)N1CCN(C(=O)C2CC2)CC1` [Olaparib] + CC1(C)CCC(CN2CCN(c3ccc(C(=O)NS(=O)(=O)c4ccc(NCC5CCOCC5)c([N+](=O)[O-])c4)c(Oc4cnc5[nH]ccc5c4)c3)CC2)=C(c2ccc(Cl)cc2)C1 [Venetoclax] (first compound max 10 µM, 7x7, partner max 1 µM), for which the “combination Emax” value is 0.462 in experiment [1]; 0.835 in the experiment with IM-9 (Non-Cancerous); 0.114 in [2]; 0.155 in experiment [3]; 0.86 in [4]; 0.235 in [5]. Besides, in experiment [6], the “combination Emax” value is 0.113.
On to `O=C(c1cc(Cc2n[nH]c(=O)c3ccccc23)ccc1F)N1CCN(C(=O)C2CC2)CC1` [Olaparib] + CN(CC[C@H](CSC1=CC=CC=C1)NC2=C(C=C(C=C2)S(=O)(=O)NC(=O)C3=CC=C(C=C3)N4CCC(CC4)[C@H](C5=CC=CC=C5C6=CC=C(C=C6)Cl)O)S(=O)(=O)C(F)(F)F)CCO [AZD4320] (first compound max 10 µM, 7x7, partner max 1 µM), for which the “combination Emax” value in experiment [1] came out at 0.511; in the experiment on IM-9 (Non-Cancerous) it was 0.924; in [2] it was 0.171; in [3], 0.267; in [4], 0.952; in experiment [5], 0.299. Further, the “combination Emax” value in [6] was 0.213.
In the case of `O=C(c1cc(Cc2n[nH]c(=O)c3ccccc23)ccc1F)N1CCN(C(=O)C2CC2)CC1` [Olaparib] + COc1nnc2ccc(N3CCC(c4ccc(OCCN5CCN(C)C(=O)[C@H]5C)cc4)CC3)nn12 [AZD5153] (first compound max 10 µM, 7x7, partner max 1 µM), the “combination Emax” value in experiment [1] was 0.774; in the experiment on IM-9 (Non-Cancerous), 0.752; in [2] it was 0.314; in experiment [3], 0.558; in experiment [4] it was 0.905; in [5], 0.367. For the same compound, the “combination Emax” value in experiment [6] was found to be 0.353.
On to `O=C(c1cc(Cc2n[nH]c(=O)c3ccccc23)ccc1F)N1CCN(C(=O)C2CC2)CC1` [Olaparib] + Cc1c2c(nn1C)CSCc1cc(n(C)n1)CSc1cc(c3ccccc3c1)OCCCc1c(C(=O)O)n(C)c3c-2c(Cl)ccc13 [AZD5991] (first compound max 10 µM, 7x7, partner max 1 µM), for which the “combination Emax” value in [1] was 0.924; in the experiment on IM-9 (Non-Cancerous), 0.903; in experiment [2], 0.163; in experiment [3] it was 0.166; in [4], 0.879; in [5], 0.293. For the same compound, the “combination Emax” value in [6] is 0.0979.
Consider `Cc1nc(-c2cn3c(n2)-c2ccc(-c4cnn(C(C)(C)C(N)=O)c4)cc2OCC3)n(C(C)C)n1` [Taselisib] + O=C(Nc1ccc2[nH]nc(-c3ccncc3)c2c1)[C@@H]1CCN(CC(=O)N2CCN(c3ccc(-c4ncccn4)cc3)CC2)C1 [SCH772984] (first compound max 10 µM, 7x7, partner max 5 µM), for which the “combination Emax” value amounted to 0.976 in experiment [1]; 0.851 in the experiment on IM-9 (Non-Cancerous); 0.971 in [2]; 0.905 in experiment [3]; 0.609 in experiment [4]; 0.24 in experiment [5]. Besides, the “combination Emax” value in experiment [6] was determined as 0.562.
In the case of `CC1(C)CCC(CN2CCN(c3ccc(C(=O)NS(=O)(=O)c4ccc(NCC5CCOCC5)c([N+](=O)[O-])c4)c(Oc4cnc5[nH]ccc5c4)c3)CC2)=C(c2ccc(Cl)cc2)C1` [Venetoclax] + CS(=O)(=O)CCNCc1ccc(-c2ccc3ncnc(Nc4ccc(OCc5cccc(F)c5)c(Cl)c4)c3c2)o1 [Lapatinib] (first compound max 1 µM, 7x7, partner max 10 µM), the “combination Emax” value in experiment [1] was 0.478; in the experiment on IM-9 (Non-Cancerous), 0.958; in experiment [2] it was 0.395; in [3], 0.917; in experiment [4], 0.371; in experiment [5], 0.129. Also, the “combination Emax” value in experiment [6] was found to be 0.165.
